Measurements as given in patent publication US6749863B1, “Targeted liposome gene delivery” (Georgetown University, priority 1997, dated 2004).

Legend:
[1] = tested on: DU145; experiment: Chemosensitization, XTT cell proliferation assay; type: cell-based; settings: Homo sapiens, DU-145, drug alone on untransfected DU145 cells
Procedure: (§1) This example summarizes part of the in vitro p53-mediated chemosensitization experiments (XTT assays) performed on the cell lines for which transfection with transferrin-coupled or folate-coupled liposomes is described in Example 17. […] The chemosensitization effect is dependent upon the liposome used and the p53 DNA dose. VIN=vinblastine; DXR=doxorubicin; CDDP=cisplatin. Fold Sensitization is calculated from the individual IC50 values. DNA dose=ug of DNA applied per well (approximately 1×10^4 cells/well in a 96-well plate).
(§2) The ability of the LipF(B)-delivered AS-HER-2 to sensitize MDA-MB-435, JSQ-3, DU145 and U87 (Human glioblastoma) cells to chemotherapeutic agents was evaluated. Sensitivity was determined using the XTT cell proliferation assay. […] Comparison of the cells treated with LipF(B) mediated AS-HER-2, to that of cells treated with a LipF(B) control oligonucleotide (SC) indicated a greater than 30 fold increase in sensitization of 435 cells to taxotere. In contrast, only a 2.5 fold level of sensitization was evident after transfection with AS-HER-2 using the commercial Lipofectin (Life Technologies, Inc.). Treatment of JSQ-3 cells with LipF(E)-AS-HER-2 increased the effect of docetaxel almost 25 fold. […] A two fold increase in sensitization of DU145 cells to docetaxel was seen after treatment with LipF(E)-AS-HER-2.

[2] = tested on: PANC-1; experiment: Chemosensitization, XTT cell proliferation assay; type: cell-based; settings: Homo sapiens, PANC-1, drug alone on untransfected PANC-1 cells
Procedure: as §1
Here also a greater than 70 fold increase in drug sensitivity was induced by treatment with LipF(B)-AS-RAS.

[3] = tested on: MDA-MB-435 mammary fat pad xenograft tumors; experiment: Chemosensitization of xenograft tumors in vivo; design: species or system athymic nude mice; settings: AS-HER-2 only or docetaxel only
Procedure: Mice bearing subcutaneous mammary fat pad MDA-MB-435 tumors of approximately 100 mm^3 were i.v. injected via the tail vein with LipF(C)-p53 every 3-4 days for a total of eight injections. Doxorubicin (Dxr) (10 mg/kg) was injected i.v. weekly for 4 weeks. […] In a second experiment, two separate liposome compositions [LipF(E) and LipF(C)] were employed.
The ability of the LipF(B)-AS-HER-2 to target and sensitize preexisting MDA-MB-435 xenograft tumors to the chemotherapeutic agent docetaxel in vivo was examined by assessing tumor regression as well as tumor growth inhibition. Female athymic (Ncr nu/nu) mice carrying MDA-MB-435 mammary fat pad xenograft tumors of approximately 70 mm^3 were intravenously injected, via the tail vein, with LipF(B)-AS-HER-2 (at approximately 0.6 mM of oligonucleotides) every other day to a total of 11 injections. A total of 11 intravenous doses of docetaxel (approximately 20 mg/kg/dose every other day) were also administered to the animals. […] Therefore, the systemically delivered, targeted liposome delivery of antisense oligonucleotides, in this case AS-HER-2, was clearly able to sensitize these tumors to the chemotherapeutic agent, strongly inhibiting tumor growth almost three weeks after the end of treatment.

[4] = tested on: DU145 xenograft tumors; experiment: Systemic LipF-p53 plus chemotherapy, xenograft growth; type: in vivo, mice; settings: complex twice/week, 5 injections, or docetaxel 10 mg/kg, alone
Procedure: Mice bearing subcutaneous DU145 xenograft tumors of approximately 100 mm^3 were injected, via the tail vein, with a ligand-liposome p53 complex using folate as the targeting ligand (LipF(B)-p53). This liposome complex was administered twice/week (to a total of 5 injections) along with the chemotherapeutic agent docetaxel at a dose of 10 mg/kg.

[5] = tested on: MDA-MB-231; experiment: Chemosensitization, XTT cell proliferation assay; type: cell-based; settings: Homo sapiens; drug alone on untransfected MDA-MB-231 cells
Procedure: as §1

[6] = tested on: JSQ-3; experiment: Chemosensitization, XTT cell proliferation assay; type: cell-based; settings: Homo sapiens, drug alone on untransfected JSQ-3 cells
Procedure: In addition to radiation, chemotherapy is becoming more commonly used in the treatment of SCCHN. As lack of functional wtp53 has been associated with failure to respond to chemotherapy, in this example we examined the effect of ligand-facilitated liposome mediated wtp53 gene therapy on sensitization of SCCHN cell line JSQ-3 to chemotherapeutic agents. 1×10^4 cells were plated/well of a 96-well plate. 24 hours later, the cells were transfected with LipT(A)-p53. Two days after transfection, anti-neoplastic agents were added at increasing concentrations (in triplicate). 4-6 days later the XTT cell proliferation assay was performed and IC50 values, the drug concentration yielding 50% growth inhibition, calculated.
as §1, with “DNA dose=ug of DNA applied per well (approximately 1×10^4 cells/well in a 96-well plate).” left out
The ability of the LipF(B)-delivered AS-HER-2 to sensitize MDA-MB-435, JSQ-3, DU145 and U87 (Human glioblastoma) cells to chemotherapeutic agents was evaluated. Sensitivity was determined using the XTT cell proliferation assay. […]

[7] = tested on: U87; experiment: Chemosensitization, XTT cell proliferation assay; type: cell-based; settings: Homo sapiens, U-87 MG, drug alone on untransfected U87 cells
Procedure: as §1, §2

[8] = tested on: PANC-1 xenograft tumors; experiment: Systemic LipF-p53 plus chemotherapy, xenograft growth; type: in vivo, athymic nude mice; settings: single agent only
Excerpt: Xenograft tumors of pancreatic cancer cell line PANC-1 were induced by the subcutaneous inoculation of greater than 1×10^7 cells onto athymic nude mice. When the tumors reached approximately 500-1000 mm^3, the tumors were excised and minced into small (<1 mm) pieces. These freshly prepared tumor pieces (suspended in PBS) were inoculated subcutaneously (using a 14 g needle) onto the flanks of athymic nude mice. When the tumors reached an average of 100 mm^3 in volume, treatment was begun. The animals received, via intravenous injection, LipF(B)-p53. This liposome complex was administered twice/week to a total of 7 injections. The chemotherapeutic agent gemcitabine was also administered intraperitoneally at a dose of either 60mg/kg or 120mg/kg twice weekly. A total of 13 gemcitabine injections were administered. One group of animals also received twice weekly intratumoral injections of LipF(B)-p53 (a total 6) in addition to the intravenous administration of the LipF(B)-p53 and gemcitabine. […] This was particularly evident in the group that received both i.v. and i.t injections.

Row | Compound | IC50 [1] [µM] | IC50 [2] [µM] | IC50 [5] [µM] | also measured
1 | CC(=O)O[C@@]12CO[C@@H]1C[C@H](O)[C@@]1(C)C(=O)[C@H](O)C3=C(C)[C@@H](OC(=O)[C@H](O)[C@@H](NC(=O)OC(C)(C)C)c4ccccc4)C[C@@](O)([C@@H](OC(=O)c4ccccc4)[C@H]21)C3(C)C [Taxotere, docetaxel] | 0.042 | 0.0115 | – | Tumor growth, single treatment [3]: some docetaxel effect; Tumor growth, single treatment [4]: neither the LipF(B)-p53 complex alone, nor docetaxel alone had any substantial effect on tumor growth
2 | COc1cccc2c1C(=O)c1c(O)c3c(c(O)c1C2=O)C[C@@](O)(C(=O)CO)C[C@@H]3O[C@H]1C[C@H](N)[C@H](O)[C@H](C)O1 [DXR, doxorubicin] | – | – | 0.27 | –
3 | CC(=O)O[C@H]1C(=O)[C@@]2(C)[C@H]([C@H](OC(=O)c3ccccc3)[C@]3(O)C[C@H](OC(=O)[C@H](O)[C@@H](NC(=O)c4ccccc4)c4ccccc4)C(C)=C1C3(C)C)[C@]1(OC(C)=O)CO[C@@H]1C[C@@H]2O [Taxol] | 0.0132 | – | 0.052 | IC50 [6]: 0.0158 µM
4 | Nc1ccn([C@@H]2O[C@H](CO)[C@@H](O)C2(F)F)c(=O)n1 [Gemzar, gemcitabine] | – | 0.8 | – | IC50 [7]: 1.28 µM; Outcome of control groups (single treatments) [8]: euthanized due to tumor burden by day 54
5 | CC[C@]1(O)C[C@@H]2CN(CCc3c([nH]c4ccccc34)[C@@](C(=O)OC)(c3cc4c(cc3OC)N(C)[C@H]3[C@@](O)(C(=O)OC)[C@H](OC(C)=O)[C@]5(CC)C=CCN6CC[C@]43[C@@H]65)C2)C1 [Vln, vinblastine] | – | – | 0.00181 | –
